In PubChem BioAssay (NCI):
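Values below derive from 48-hour exposures of cells grown in 96-well plates, with endpoints linearly interpolated between the two concentrations bracketing the appropriate inhibition level. At the GI50, growth is halved. TGI marks complete inhibition of growth.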

Key:
Experiment in all cases: NCI-60 cell line screen, 48 h
CCRF-CEM leukemia = system: CCRF-CEM leukemia
MDA-MB-231 breast = system: MDA-MB-231 breast
NCI-H460 lung = system: NCI-H460 lung
IGROV1 ovarian = system: IGROV1 ovarian
SF-268 CNS = system: SF-268 CNS
OVCAR-4 ovarian = system: OVCAR-4 ovarian
SF-295 CNS = system: SF-295 CNS
DU-145 prostate = system: DU-145 prostate
HOP-62 NSCLC = system: HOP-62 NSCLC
SK-MEL-5 melanoma = system: SK-MEL-5 melanoma
HCC-2998 colon = system: HCC-2998 colon
UACC-257 melanoma = system: UACC-257 melanoma
CAKI-1 renal = system: CAKI-1 renal
HCT-15 colon = system: HCT-15 colon
SNB-19 CNS = system: SNB-19 CNS
TK-10 renal = system: TK-10 renal
U251 CNS = system: U251 CNS
NCI-H226 lung = system: NCI-H226 lung
HS 578T breast = system: HS 578T breast
A549 NSCLC = system: A549 NSCLC
MALME-3M melanoma = system: MALME-3M melanoma
SK-MEL-28 melanoma = system: SK-MEL-28 melanoma
NCI-H522 lung = system: NCI-H522 lung
HCT-116 colon = system: HCT-116 colon
SK-OV-3 ovarian = system: SK-OV-3 ovarian
RPMI-8226 leukemia = system: RPMI-8226 leukemia
HOP-92 NSCLC = system: HOP-92 NSCLC
K-562 leukemia = system: K-562 leukemia
M14 melanoma = system: M14 melanoma
SNB-75 CNS = system: SNB-75 CNS
786-0 renal = system: 786-0 renal
PC-3 prostate = system: PC-3 prostate
SN12C renal = system: SN12C renal
OVCAR-8 ovarian = system: OVCAR-8 ovarian
MCF7 breast = system: MCF7 breast
UACC-62 melanoma = system: UACC-62 melanoma
T-47D breast = system: T-47D breast
OVCAR-5 ovarian = system: OVCAR-5 ovarian
EKVX NSCLC = system: EKVX NSCLC
SF-539 CNS = system: SF-539 CNS
A498 renal = system: A498 renal
BT-549 breast = system: BT-549 breast
OVCAR-3 ovarian = system: OVCAR-3 ovarian
SK-MEL-2 melanoma = system: SK-MEL-2 melanoma
MOLT-4 leukemia = system: MOLT-4 leukemia
LOX IMVI melanoma = system: LOX IMVI melanoma
UO-31 renal = system: UO-31 renal
SR leukemia = system: SR leukemia
HT29 colon = system: HT29 colon
ACHN renal = system: ACHN renal
COLO 205 colon = system: COLO 205 colon
NCI/ADR-RES ovarian = system: NCI/ADR-RES ovarian
MDA-MB-435 = system: MDA-MB-435
KM12 colon = system: KM12 colon
HL-60(TB) leukemia = system: HL-60(TB) leukemia
RXF 393 renal = system: RXF 393 renal
NCI-H23 lung = system: NCI-H23 lung
SW-620 colon = system: SW-620 colon

`COc1cccc(/C=C2\COc3ccc(O)c(O)c3C2=O)c1` was tested, and the GI50 (CCRF-CEM leukemia) was 0.263 µM, the TGI (CCRF-CEM leukemia) was 1.11 µM and the GI50 (MDA-MB-231 breast) was 1.69 µM. For the same compound, the TGI (MDA-MB-231 breast) was 6.5 µM, the GI50 (NCI-H460 lung) was 2.44 µM and the TGI (NCI-H460 lung) was 8.19 µM. The GI50 (IGROV1 ovarian) was 0.781 µM, the TGI (IGROV1 ovarian) was 3.63 µM and the GI50 (SF-268 CNS) was 1.82 µM. The TGI (SF-268 CNS) was 5.17 µM, the GI50 (OVCAR-4 ovarian) was 2.18 µM and the TGI (OVCAR-4 ovarian) was 9.47 µM. It also gave a GI50 (SF-295 CNS) of 3.2 µM, a TGI (SF-295 CNS) of 10.2 µM and a GI50 (DU-145 prostate) of 1.68 µM. The TGI (DU-145 prostate) was 4.16 µM, the GI50 (HOP-62 NSCLC) was 2.8 µM and the TGI (HOP-62 NSCLC) was 10.4 µM. For the same compound, the GI50 (SK-MEL-5 melanoma) was 1.44 µM, the TGI (SK-MEL-5 melanoma) was 2.76 µM and the GI50 (HCC-2998 colon) was 1.6 µM. It also gave a TGI (HCC-2998 colon) of 3.03 µM, a GI50 (UACC-257 melanoma) of 1.73 µM and a TGI (UACC-257 melanoma) of 4.77 µM. The GI50 (CAKI-1 renal) was 1.28 µM, the TGI (CAKI-1 renal) was 2.71 µM and the GI50 (HCT-15 colon) was 0.469 µM. It also gave a TGI (HCT-15 colon) of 4.91 µM, a GI50 (SNB-19 CNS) of 1.84 µM and a TGI (SNB-19 CNS) of 5.07 µM. For the same compound, the GI50 (TK-10 renal) was 1.74 µM, the TGI (TK-10 renal) was 3.49 µM and the GI50 (U251 CNS) was 1.15 µM. For the same compound, the TGI (U251 CNS) was 2.49 µM, the GI50 (NCI-H226 lung) was 2.03 µM and the TGI (NCI-H226 lung) was 5.38 µM. The GI50 (HS 578T breast) was 2.9 µM, the TGI (HS 578T breast) was 21.8 µM and the GI50 (A549 NSCLC) was 2.41 µM. For the same compound, the TGI (A549 NSCLC) was 10.3 µM, the GI50 (MALME-3M melanoma) was 1.45 µM and the TGI (MALME-3M melanoma) was 3.71 µM. The GI50 (SK-MEL-28 melanoma) was 1.78 µM, the TGI (SK-MEL-28 melanoma) was 4.13 µM and the GI50 (NCI-H522 lung) was 0.193 µM. For the same compound, the TGI (NCI-H522 lung) was 0.448 µM, the GI50 (HCT-116 colon) was 1.25 µM and the TGI (HCT-116 colon) was 2.9 µM. For the same compound, the GI50 (SK-OV-3 ovarian) was 3.38 µM, the TGI (SK-OV-3 ovarian) was 12.7 µM and the GI50 (RPMI-8226 leukemia) was 0.223 µM. The TGI (RPMI-8226 leukemia) was 0.626 µM, the GI50 (HOP-92 NSCLC) was 2.11 µM and the TGI (HOP-92 NSCLC) was 8.01 µM. The GI50 (K-562 leukemia) was 0.396 µM, the TGI (K-562 leukemia) was > 100 µM and the GI50 (M14 melanoma) was 1.88 µM. The TGI (M14 melanoma) was 4.76 µM, the GI50 (SNB-75 CNS) was 1.42 µM and the TGI (SNB-75 CNS) was 10.3 µM. It also gave a GI50 (786-0 renal) of 1.47 µM, a TGI (786-0 renal) of 3.86 µM and a GI50 (PC-3 prostate) of 0.77 µM. For the same compound, the TGI (PC-3 prostate) was 6.04 µM, the GI50 (SN12C renal) was 1.09 µM and the TGI (SN12C renal) was 3.62 µM. It also gave a GI50 (OVCAR-8 ovarian) of 1.79 µM, a TGI (OVCAR-8 ovarian) of 13.2 µM and a GI50 (MCF7 breast) of 0.438 µM. The TGI (MCF7 breast) was 3.12 µM, the GI50 (UACC-62 melanoma) was 1.53 µM and the TGI (UACC-62 melanoma) was 3.22 µM. The GI50 (T-47D breast) was 1.58 µM, the TGI (T-47D breast) was 4.38 µM and the GI50 (OVCAR-5 ovarian) was 2.18 µM. The TGI (OVCAR-5 ovarian) was 4.69 µM, the GI50 (EKVX NSCLC) was 1.82 µM and the TGI (EKVX NSCLC) was 3.95 µM. For the same compound, the GI50 (SF-539 CNS) was 1.18 µM, the TGI (SF-539 CNS) was 3.06 µM and the GI50 (A498 renal) was 1.71 µM. It also gave a TGI (A498 renal) of 4 µM, a GI50 (BT-549 breast) of 1.97 µM and a TGI (BT-549 breast) of 5.08 µM. For the same compound, the GI50 (OVCAR-3 ovarian) was 0.629 µM, the TGI (OVCAR-3 ovarian) was 1.93 µM and the GI50 (SK-MEL-2 melanoma) was 2.16 µM. It also gave a TGI (SK-MEL-2 melanoma) of 5.15 µM, a GI50 (MOLT-4 leukemia) of 1.64 µM and a TGI (MOLT-4 leukemia) of 17.7 µM. The GI50 (LOX IMVI melanoma) was 0.74 µM, the TGI (LOX IMVI melanoma) was 2.06 µM and the GI50 (UO-31 renal) was 0.853 µM. The TGI (UO-31 renal) was 2.09 µM, the GI50 (SR leukemia) was 0.359 µM and the TGI (SR leukemia) was 6.97 µM. For the same compound, the GI50 (HT29 colon) was 2.26 µM, the TGI (HT29 colon) was 5.07 µM and the GI50 (ACHN renal) was 1.25 µM. The TGI (ACHN renal) was 2.61 µM, the GI50 (COLO 205 colon) was 1.96 µM and the TGI (COLO 205 colon) was 3.87 µM. For the same compound, the GI50 (NCI/ADR-RES ovarian) was 1.64 µM, the TGI (NCI/ADR-RES ovarian) was 5.95 µM and the GI50 (MDA-MB-435) was 1.46 µM. For the same compound, the TGI (MDA-MB-435) was 4.12 µM, the GI50 (KM12 colon) was 1.44 µM and the TGI (KM12 colon) was 3.25 µM. It also gave a GI50 (HL-60(TB) leukemia) of 0.405 µM, a TGI (HL-60(TB) leukemia) of 3.2 µM and a GI50 (RXF 393 renal) of 1.19 µM. It also gave a TGI (RXF 393 renal) of 2.48 µM, a GI50 (NCI-H23 lung) of 1.58 µM and a TGI (NCI-H23 lung) of 3.34 µM. It also gave a GI50 (SW-620 colon) of 1.16 µM and a TGI (SW-620 colon) of 3.85 µM.
With `O=C1CCCC/C1=C(\Br)I` the TGI (CCRF-CEM leukemia) was 5.68 µM, the TGI (MDA-MB-231 breast) was 32.5 µM and the TGI (NCI-H460 lung) was 33 µM. The TGI (IGROV1 ovarian) was 40.8 µM, the TGI (SF-268 CNS) was 14.8 µM and the TGI (OVCAR-4 ovarian) was 29.3 µM. For the same compound, the TGI (SF-295 CNS) was 37.7 µM, the TGI (DU-145 prostate) was 26 µM and the TGI (HOP-62 NSCLC) was 36.7 µM. It also gave a TGI (SK-MEL-5 melanoma) of 42.1 µM, a TGI (HCC-2998 colon) of 9.79 µM and a TGI (UACC-257 melanoma) of 30.5 µM. For the same compound, the TGI (CAKI-1 renal) was 24.9 µM, the TGI (HCT-15 colon) was 7.97 µM and the TGI (SNB-19 CNS) was 47.5 µM. It also gave a TGI (TK-10 renal) of 18.4 µM, a TGI (U251 CNS) of 34 µM and a TGI (NCI-H226 lung) of 43.7 µM. For the same compound, the TGI (HS 578T breast) was > 100 µM, the TGI (A549 NSCLC) was 58.6 µM and the TGI (MALME-3M melanoma) was 12.1 µM. The TGI (SK-MEL-28 melanoma) was 29.9 µM, the TGI (NCI-H522 lung) was 3.48 µM and the TGI (HCT-116 colon) was 25 µM. It also gave a TGI (SK-OV-3 ovarian) of 49.2 µM, a TGI (RPMI-8226 leukemia) of 16.5 µM and a TGI (HOP-92 NSCLC) of 31.8 µM. The TGI (K-562 leukemia) was 10.3 µM, the TGI (M14 melanoma) was 20.1 µM and the TGI (SNB-75 CNS) was 34.8 µM. It also gave a TGI (786-0 renal) of 37.5 µM, a TGI (PC-3 prostate) of 32.9 µM and a TGI (SN12C renal) of 30.8 µM. The TGI (OVCAR-8 ovarian) was 28.1 µM, the TGI (MCF7 breast) was 32.9 µM and the TGI (UACC-62 melanoma) was 38.3 µM. The TGI (T-47D breast) was 15.2 µM, the TGI (OVCAR-5 ovarian) was 33.2 µM and the TGI (EKVX NSCLC) was 34.4 µM. For the same compound, the TGI (SF-539 CNS) was 41.2 µM, the TGI (A498 renal) was 35.7 µM and the TGI (BT-549 breast) was 31.6 µM. The TGI (OVCAR-3 ovarian) was 32.1 µM, the TGI (SK-MEL-2 melanoma) was 38.6 µM and the TGI (MOLT-4 leukemia) was 7.17 µM. For the same compound, the TGI (LOX IMVI melanoma) was 32.4 µM, the TGI (UO-31 renal) was 31.5 µM and the TGI (SR leukemia) was 9.49 µM. The TGI (HT29 colon) was 27.4 µM, the TGI (ACHN renal) was 29.6 µM and the TGI (COLO 205 colon) was 28.8 µM. It also gave a TGI (NCI/ADR-RES ovarian) of 41.1 µM, a TGI (MDA-MB-435) of 29.4 µM and a TGI (KM12 colon) of 34 µM. It also gave a TGI (HL-60(TB) leukemia) of 5.71 µM, a TGI (RXF 393 renal) of 29.5 µM and a TGI (NCI-H23 lung) of 16.8 µM. For the same compound, the TGI (SW-620 colon) was 10.4 µM.
